Measurements: paper PMC8778866, “Oral Bioavailability Enhancement of Melanin Concentrating Hormone, Development and In Vitro Pharmaceutical Assessment of Novel Delivery Systems” (Pharmaceutics, 2021)

Assays:
pancreatin = assay: Enzymatic stability in simulated intestinal fluid (SIF) with pancreatin; assay type: in vitro ADME, porcine; conditions: 37 °C, 100 rpm, RIA, mean ± SD, n = 3
Description: (§1) Enzymatic degradation in the presence of proetolytic enzymes pepsin and pancreatin was investigated. Peptide-loaded particles were added to 100 mL of artificial gastric fluid (simulated gastric fluid—SGF) with pepsin, or artificial intestinal fluid (simulated intestinal fluid—SIF) with pancreatin and incubated at 37 °C under moderate stirring at 100 rpm. SGF and SIF were prepared as per European Pharmacopoeia specifications. A total of 1000 µL samples were collected at determined time intervals for 120 min, and an equal volume of ice-cold reagent was added to stop the enzymatic reaction (0.10 M NaOH for SGF and 0.10 M HCl for SIF). Samples were analyzed by radioimmunoassay.

pepsin [1] = molecular target: T1, pepsin (Sus scrofa, UniProt P00791); assay: Enzymatic stability in simulated gastric fluid (SGF) with pepsin; assay type: in vitro ADME, porcine; conditions: SGF with pepsin, 37 °C, 100 rpm, 1 h; RIA; n = 3
T1 construct: purchased Sigma-Aldrich; host or cells: porcine gastric mucosa
Description: as §1

pepsin [2] = tested on: T2, pepsin; assay: as above; assay type: in vitro ADME, porcine; conditions: pig, simulated gastric fluid (SGF) with pepsin; SGF with pepsin (Ph. Eur.), 37 °C, 100 rpm, 30 min; RIA; mean ± SD, n = 3; read-out: active MCH measured after incubation in SGF
T2 construct: purchased Sigma-Aldrich; host or cells: porcine gastric mucosa
Description: as §1

Caco-2 cells = assay: MTT cell viability assay; assay type: cell-based, human; conditions: Caco-2, MTT, n = 10
Description: A Caco-2 immortalized human adenocarcinoma cell line was purchased from The European Collection of Cell Cultures (ECACC). Cells were seeded and maintained in plastic cell culture flasks in Dulbecco's Modified […] medium (DMEM Sigma-Aldrich Ltd., Budapest, Hungary). Cell culturing media was supplemented with 2 mM L-glutamine, 100 mg/L gentamycin (Sigma-Aldrich Ltd., Budapest, Hungary) and 10% heat inactivated fetal bovine serum (FBS) (Sigma-Aldrich Ltd., Budapest, Hungary). Cells were stored in incubators at 37 °C in a 5% CO2 atmosphere. The colon epithelial Caco-2 cell line forms a single cell layer with well-defined tight junctions. Caco-2 cell viability was evaluated using the MTT method. Cells were harvested and seeded at a density of 10^4 cells/well on flat-bottom 96-well tissue culture plates. Cells were allowed to grow for 7 days under the abovementioned conditions. For the viability measurements, the DMEM was removed. […] Mitochondrial activity of the cells was determined after 3 h incubation with MTT at the concentration of 0.50 mg/mL. […] The absorbance of dissolved formazan crystals correlates with the ratio of the living cells. Absorbance was measured with a FLUOstar OPTIMA Micro-plate Reader (BMG LABTECH, Offenburg, Germany) at 570 nm against a 690 nm reference.

T1 sequence (P00791 60-385): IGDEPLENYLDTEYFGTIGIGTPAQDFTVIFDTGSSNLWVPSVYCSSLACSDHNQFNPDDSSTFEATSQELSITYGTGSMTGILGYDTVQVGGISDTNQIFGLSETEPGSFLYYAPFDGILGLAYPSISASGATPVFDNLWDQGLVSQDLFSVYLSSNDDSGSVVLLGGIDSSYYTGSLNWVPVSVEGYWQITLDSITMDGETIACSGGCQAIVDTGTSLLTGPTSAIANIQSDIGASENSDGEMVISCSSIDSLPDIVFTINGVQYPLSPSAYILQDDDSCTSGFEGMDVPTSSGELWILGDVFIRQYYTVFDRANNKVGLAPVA

CSCC[C@@H]1NC(=O)[C@@H](NC(=O)[C@H](CCCNC(=N)N)NC(=O)[C@H](CC(C)C)NC(=O)[C@H](CCSC)NC(=O)[C@H](CC(=O)O)NC(=O)[C@H](Cc2ccccc2)NC(=O)[C@@H](N)CC(=O)O)CSSC[C@@H](C(=O)N[C@@H](Cc2c[nH]c3ccccc23)C(=O)N[C@@H](CCC(N)=O)C(=O)N[C@H](C(=O)O)C(C)C)NC(=O)[C@@H]2CCCN2C(=O)[C@H](CCCNC(=N)N)NC(=O)[C@H](Cc2ccc(O)cc2)NC(=O)[C@H](C(C)C)NC(=O)[C@H](CCCNC(=N)N)NC(=O)CNC(=O)[C@H](CC(C)C)NC1=O [MCH, Melanin concentrating hormone]
MCH recovery after incubation with SIF (pancreatin; SIF with pancreatin, 2 h): 1.00 ± 0.50% | remaining at 0.5 h (pancreatin; pig, simulated intestinal fluid (SIF) with pancreatin, SIF with pancreatin (Ph. Eur.), 30 min, read-out: active MCH measured after incubation in SIF): 8 ± 0.5% | degradation after incubation in SGF (pepsin [1]): completely degraded | remaining at 0.5 h (pepsin [2]): 3 ± 0.5%

CCOCCOCCO [Transcutol HP, Diethylene glycol monoethyl ether]
IC50 (cytotoxicity) (Caco-2 cells; 30 min incubation with sample, 3 h MTT 0.50 mg/mL, absorbance 570 nm): 0.37 v/v%

O.O.[Ca+2].[Cl-].[Cl-] [calcium-chloride dihydrate, Calcium chloride dihydrate]
toxicity in MTT assay (in words) (Caco-2 cells; 30 min incubation, also at higher concentrations): did not show relevant toxicity
